Measurements taken from PubChem BioAssay (NCI).
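Method: 48-hour compound exposure of cells in 96-well plates, five concentrations, linear interpolation of endpoints. GI50 marks 50% less growth. TGI denotes the concentration required for complete inhibition of growth.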

Key:
Test in all cases: NCI anticancer screen, dose series, 48 h
MDA-MB-435 = test system: MDA-MB-435
KM12 colon = test system: KM12 colon
U251 CNS = test system: U251 CNS
NCI/ADR-RES ovarian = test system: NCI/ADR-RES ovarian
A498 renal = test system: A498 renal
A549 NSCLC = test system: A549 NSCLC
M14 melanoma = test system: M14 melanoma
HS 578T breast = test system: HS 578T breast
NCI-H460 lung = test system: NCI-H460 lung
SK-MEL-28 melanoma = test system: SK-MEL-28 melanoma
HCT-15 colon = test system: HCT-15 colon
SF-295 CNS = test system: SF-295 CNS
NCI-H23 lung = test system: NCI-H23 lung
SNB-19 CNS = test system: SNB-19 CNS
SK-MEL-2 melanoma = test system: SK-MEL-2 melanoma
PC-3 prostate = test system: PC-3 prostate
MDA-MB-231 breast = test system: MDA-MB-231 breast
NCI-H522 lung = test system: NCI-H522 lung
HCT-116 colon = test system: HCT-116 colon
MALME-3M melanoma = test system: MALME-3M melanoma
OVCAR-3 ovarian = test system: OVCAR-3 ovarian
MOLT-4 leukemia = test system: MOLT-4 leukemia
HOP-92 NSCLC = test system: HOP-92 NSCLC
SW-620 colon = test system: SW-620 colon
COLO 205 colon = test system: COLO 205 colon
OVCAR-4 ovarian = test system: OVCAR-4 ovarian
TK-10 renal = test system: TK-10 renal
HCC-2998 colon = test system: HCC-2998 colon
CCRF-CEM leukemia = test system: CCRF-CEM leukemia

## Clc1ccc(/C=C2\CCCC3C2=Nc2ccccc2NC3c2ccc(Cl)cc2)cc1 (stereo not drawn)
MDA-MB-435
  GI50: 2.87 µM
  TGI: > 27.6 µM
KM12 colon
  GI50: 2.02 µM
  TGI: 3.99 µM
U251 CNS
  GI50: 2.05 µM
  TGI: 4.71 µM
NCI/ADR-RES ovarian
  GI50: 4.66 µM
  TGI: 52.3 µM
A498 renal
  GI50: 2.15 µM
  TGI: 5.79 µM
A549 NSCLC
  GI50: 2.88 µM
  TGI: 9.11 µM
M14 melanoma
  GI50: 2.07 µM
  TGI: 5.19 µM
HS 578T breast
  GI50: 4.04 µM
  TGI: > 27.7 µM
NCI-H460 lung
  GI50: 4.47 µM
  TGI: 16.4 µM
SK-MEL-28 melanoma
  GI50: 7.15 µM
  TGI: 28.4 µM
HCT-15 colon
  GI50: 2.59 µM
  TGI: 7.47 µM
SF-295 CNS
  GI50: 2.71 µM
  TGI: 8.46 µM
NCI-H23 lung
  GI50: 3.43 µM
  TGI: 15.7 µM
SNB-19 CNS
  GI50: 7.01 µM
  TGI: > 100 µM
SK-MEL-2 melanoma
  GI50: 31.3 µM
  TGI: > 64.8 µM
PC-3 prostate
  GI50: 4.45 µM
  TGI: > 41.5 µM
MDA-MB-231 breast
  GI50: 6.99 µM
  TGI: 41.7 µM
NCI-H522 lung
  GI50: 11.6 µM
  TGI: 28.5 µM
HCT-116 colon
  GI50: 1.59 µM
  TGI: 3.02 µM
MALME-3M melanoma
  GI50: 16.8 µM
  TGI: 49.2 µM
OVCAR-3 ovarian
  GI50: 3.13 µM
  TGI: 9.12 µM
MOLT-4 leukemia
  GI50: 4.52 µM
  TGI: 30.4 µM
HOP-92 NSCLC
  GI50: 7.99 µM
  TGI: 37.9 µM
SW-620 colon
  GI50: 2.96 µM
  TGI: 10.6 µM
COLO 205 colon
  GI50: 3.11 µM
  TGI: 8.2 µM
OVCAR-4 ovarian
  GI50: 3.77 µM
  TGI: > 52.7 µM
TK-10 renal
  GI50: 11 µM
  TGI: > 58.5 µM
HCC-2998 colon
  GI50: 1.92 µM
  TGI: 3.55 µM
CCRF-CEM leukemia
  GI50: 3.18 µM
  TGI: > 35.9 µM
